Values belong to the molecule of their own block, whether it stands above or below them.
Experiments:
[1] = system: breast cancer cell lines with dysregulated centromere complex; assay: Drug response (AUC) of cell lines with vs without dysregulation in the centromere complex; type: cell-based; conditions: 41 breast cancer cell lines, AUC ratio, FIG. 32B
Experimental: (§1) The drug candidates were screened at different concentrations, and the response to each drug candidate was measured as an area under the curve (AUC). Three known complexes—the BRCA1-associated genome surveillance complex, the centromere, and the proteasome—were selected from the CORUM database, and for each complex, the cell lines evaluated were separated into a first group in which cell lines carried dysregulated protein-protein interactions on any of the proteins in the complex, and a second group in which cell lines carried no dysregulations on any of the proteins in the complex.
(§2) Each figure is a plot showing how protein-protein interaction dysregulation in one of the selected complexes affects the responses of the evaluated breast cancer cell lines to different drug candidates. In each plot, every data point represents a different drug candidate. The horizontal axis in each plot represents the base 2 logarithm of the ratio of the drug candidate response in cell lines with dysregulation to the drug candidate response in cell lines without dysregulation. The vertical axis in each plot, which corresponds to the base 10 logarithm of the Grubbs test p-value, represents the significance of the drug candidate response difference.

[2] = system: breast cancer cell lines with dysregulated BRCA1-associated genome surveillance complex; assay: Drug response (AUC) of cell lines with vs without dysregulation in the BRCA1-associated genome surveillance complex; type: cell-based; conditions: 41 breast cancer cell lines, AUC ratio dysregulated/not dysregulated, FIG. 32A
Experimental: as §1, §2

Aurora Kinases = conditions: cited from earlier work
[3] = biological target: T1, polo-like Kinase 4 (PLK4) (Homo sapiens, UniProt O00444); conditions: cited from earlier work
T1 sequence (O00444 1-970): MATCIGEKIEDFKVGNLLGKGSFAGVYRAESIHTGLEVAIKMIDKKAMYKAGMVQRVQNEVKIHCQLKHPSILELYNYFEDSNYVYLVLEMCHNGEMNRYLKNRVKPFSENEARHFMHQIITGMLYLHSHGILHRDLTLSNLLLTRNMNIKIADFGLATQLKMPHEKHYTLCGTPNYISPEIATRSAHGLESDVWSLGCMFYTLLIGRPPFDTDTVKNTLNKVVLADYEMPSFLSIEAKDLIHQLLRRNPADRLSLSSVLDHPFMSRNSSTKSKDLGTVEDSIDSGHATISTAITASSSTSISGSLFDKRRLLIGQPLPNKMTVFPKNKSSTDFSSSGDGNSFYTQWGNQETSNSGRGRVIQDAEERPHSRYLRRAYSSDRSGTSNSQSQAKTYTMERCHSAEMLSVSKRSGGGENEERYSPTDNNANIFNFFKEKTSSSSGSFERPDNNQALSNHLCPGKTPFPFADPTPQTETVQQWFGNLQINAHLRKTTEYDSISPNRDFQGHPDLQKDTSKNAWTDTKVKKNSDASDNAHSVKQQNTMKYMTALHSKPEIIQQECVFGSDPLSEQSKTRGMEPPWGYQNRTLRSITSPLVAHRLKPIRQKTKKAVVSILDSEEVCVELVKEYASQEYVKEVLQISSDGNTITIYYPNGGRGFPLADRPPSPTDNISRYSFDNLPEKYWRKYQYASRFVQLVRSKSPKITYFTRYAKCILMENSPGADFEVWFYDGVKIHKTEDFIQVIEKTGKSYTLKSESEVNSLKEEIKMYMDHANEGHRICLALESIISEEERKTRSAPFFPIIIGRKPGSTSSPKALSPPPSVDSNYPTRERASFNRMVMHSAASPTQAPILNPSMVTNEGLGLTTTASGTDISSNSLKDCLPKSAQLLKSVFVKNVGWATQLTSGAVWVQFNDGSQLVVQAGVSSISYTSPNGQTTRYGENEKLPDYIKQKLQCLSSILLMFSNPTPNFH

H3122 cell line = assay: Ceritinib sensitivity of parental H3122 cell line; type: cell-based; conditions: Homo sapiens, NCI-H3122; ALK-positive H3122 parental cell line
Experimental: (§3) In the particular study reported here, resistance to the small molecule ALK inhibitor Ceritinib was studied. The patient-derived cell line H3122 is a NSCLC line with an EML4-ALK fusion, and it is sensitive to Ceritinib. To simulate the clinical development of therapeutic resistance following initial treatment, this cell line was cultured over a period of 6 months with low but increasing doses of Ceritinib. […] These clones were expanded and comprise the cell lines LDKR1-4.
(§4) FIG. 5 is a schematic diagram showing the development of the cell lines.

LDKR1-4 cell lines = assay: Ceritinib sensitivity of resistant clones LDKR1-4; type: cell-based
Experimental: as §3, §4

ALK = ALK (Homo sapiens, UniProt Q9UM73); assay: Proteomic/phosphoproteomic profiling of ALK phosphorylation after Ceritinib treatment; type: cell-based
ALK, sequence (Q9UM73 with tags, fused parts or gaps): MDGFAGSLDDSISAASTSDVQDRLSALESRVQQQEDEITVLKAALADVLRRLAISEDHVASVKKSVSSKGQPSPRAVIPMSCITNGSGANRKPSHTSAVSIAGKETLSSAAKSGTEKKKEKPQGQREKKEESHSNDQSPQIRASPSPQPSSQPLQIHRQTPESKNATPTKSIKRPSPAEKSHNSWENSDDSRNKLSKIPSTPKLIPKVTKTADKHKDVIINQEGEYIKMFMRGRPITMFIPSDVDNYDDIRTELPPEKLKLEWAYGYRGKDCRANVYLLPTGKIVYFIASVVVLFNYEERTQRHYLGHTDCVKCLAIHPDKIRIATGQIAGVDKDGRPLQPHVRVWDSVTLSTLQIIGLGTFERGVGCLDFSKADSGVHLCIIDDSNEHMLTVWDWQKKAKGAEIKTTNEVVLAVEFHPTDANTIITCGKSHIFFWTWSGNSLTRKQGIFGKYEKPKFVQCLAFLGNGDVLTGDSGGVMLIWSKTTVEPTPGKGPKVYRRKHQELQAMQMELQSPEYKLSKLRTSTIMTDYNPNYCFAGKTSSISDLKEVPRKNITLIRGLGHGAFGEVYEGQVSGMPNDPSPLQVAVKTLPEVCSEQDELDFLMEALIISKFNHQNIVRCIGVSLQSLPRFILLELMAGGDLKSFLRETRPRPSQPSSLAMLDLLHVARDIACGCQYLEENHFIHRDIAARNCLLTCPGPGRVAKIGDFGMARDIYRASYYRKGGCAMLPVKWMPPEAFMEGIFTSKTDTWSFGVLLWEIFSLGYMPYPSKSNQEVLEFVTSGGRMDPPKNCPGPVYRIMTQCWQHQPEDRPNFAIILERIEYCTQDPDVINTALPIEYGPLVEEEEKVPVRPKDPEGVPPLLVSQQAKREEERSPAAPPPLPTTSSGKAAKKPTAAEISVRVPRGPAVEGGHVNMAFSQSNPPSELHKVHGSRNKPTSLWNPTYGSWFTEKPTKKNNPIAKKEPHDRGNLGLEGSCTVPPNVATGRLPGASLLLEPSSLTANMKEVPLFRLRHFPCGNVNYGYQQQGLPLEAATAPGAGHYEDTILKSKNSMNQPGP
Experimental: The H3122 parental and LDKR1-4 cell lines were each grown in culture with or without the addition of Ceritinib for 24 hours, and harvested cells were subsequently processed for both proteomic and phosphoproteomic analyses. Specifically, each of the cell lines was cultured in RPMI-1640 media supplemented with 10% FBS, 100 units/mL penicillin, and 100 μg/mL streptomycin. Cells were treated for 24 hours with 300 nM Ceritinib (also known as LDK378). Cells were collected, and the cell pellets were resuspended in mammalian lysis buffer and lysed by passage through a 21 gauge needle. The lysate was centrifuged at 15,000×g for 5 minutes at 4° C., and insoluble debris was discarded.
The lysates were then prepared for mass spectrometry analysis. Samples were reduced with DTT, alkylated with iodoacetamide, and precipitated with methanol/chloroform. […] Samples were quenched with 1% TFA and desalted using Sep-Pak C18 (SPE) cartridges (obtained from Waters Corp., Milford, MA). The peptide concentration of each sample was determined using a BCA assay.
For phosphoproteomic analysis, 2.0 mg of digested peptides were enriched for phosphopeptides using titanium dioxide beads, labeled with TMT10-plex reagents, and further enriched with a phosphotyrosine antibody. Specifically, 8 mg of titanium dioxide beads were incubated with the peptide in binding buffer (2 M lactic acid in 50% ACN/50% H2O) for 1 hour with gentle shaking. […] Samples were acidified and desalted over Sep-Pak C18 SPE cartridges.

[4] = system: breast cancer cell lines with dysregulated proteasome complex; assay: Drug response (AUC) of cell lines with vs without dysregulation in the proteasome complex; type: cell-based; conditions: 41 breast cancer cell lines, AUC ratio, FIG. 32C
Experimental: as §1
as §2, with “difference. […]” for “difference.”

[5] = parental H3122, 300 nM Ceritinib, 24 hours, ratio to parental with no drug

Molecule: C#Cc1cccc(Nc2ncnc3cc(OC)c(OCCCCCCC(=O)NO)cc23)c1 [CUDC-101]
effect of dysregulation in the centromere complex on cell line response to drug [1]: sensitize

Molecule: Bleomycin
effect of dysregulation in the genome surveillance complex on cell line response to drug [2]: sensitize

Molecule: NC(=O)Nc1sc(-c2ccc(F)cc2)cc1C(N)=O [TPCA-1]
inhibition of Aurora Kinases (Aurora Kinases): potently inhibit

Molecule: Nc1ccn([C@@H]2O[C@H](CO)[C@@H](O)C2(F)F)c(=O)n1 [Gemcitabine]
effect of dysregulation in the genome surveillance complex on cell line response to drug [2]: sensitize

Molecule: Cc1cc(Nc2nc(N[C@@H](C)c3ncc(F)cn3)ncc2Cl)n[nH]1 [AZD1480]
inhibition of Aurora Kinases (Aurora Kinases): potently inhibit

Molecule: O=C(CCCCCCNC(=O)c1cnc(N(c2ccccc2)c2ccccc2)nc1)NO [ACY-1215]
effect of dysregulation in the centromere complex on cell line response to drug [1]: sensitize

Molecule: COc1cc2c(Oc3ccc(NC(=O)C4(C(=O)Nc5ccc(F)cc5)CC4)cc3F)ccnc2cc1OCCCN1CCOCC1 [XL-880, foretinib]
inhibition of Aurora Kinases (Aurora Kinases): potently inhibit | inhibition of polo-like Kinase 4 (PLK4) [3]: inhibits

IC50 (LDKR1-4 cell lines; resistant clones LDKR1-4): 1490 to 3900 nM | ALK Thr 1506/Tyr 1507/Ser 1509 phosphorylation upon drug treatment (ALK; [5]): decreasing fourfold | ALK Tyr 1078 phosphorylation upon drug treatment (ALK; [5]): decreased
Molecule: Cc1cc(Nc2ncc(Cl)c(Nc3ccccc3S(=O)(=O)C(C)C)n2)c(OC(C)C)cc1C1CCNCC1 [Ceritinib]
IC50 (H3122 cell line): 53 nM | IC50 relative to the parental sensitive cell line (LDKR1-4 cell lines; four resistant clones vs parental H3122): at least twenty times higher | inhibition of ALK activity in resistant cell lines (ALK; LDKR1-4, Ceritinib treatment): continued to be effective at inhibiting ALK activity in at least three of the four resistant cell lines

Molecule: O=C(/C=C/c1ccc(CN(CCO)CCc2c[nH]c3ccccc23)cc1)NO [LAQ824]
effect of dysregulation in the centromere complex on cell line response to drug [1]: sensitize

Molecule: CC(C)C[C@H](NC(=O)[C@H](CCc1ccccc1)NC(=O)CN1CCOCC1)C(=O)N[C@@H](Cc1ccccc1)C(=O)N[C@@H](CC(C)C)C(=O)[C@@]1(C)CO1 [Carfilzomib]
effect of dysregulation in the proteasome complex on cell line response to drug [4]: densensitized
